According to patent US20210255193A1, “LYSINE REACTIVE PROBES AND USES THEREOF” (The Scripps Research Institute, priority 2017, published 2021):

What was measured:
Assay in all cases: competitive isoTOP-ABPP
Type in all cases: binding
[1] = molecular target: T1, HDHD3 Haloacid dehalogenase-like hydrolase domain-containing protein 3 (Homo sapiens, UniProt Q9BSH5); parameters: key to isoTOP-ABPP reactivity ratio at lysine Q9BSH5_K15: R = MS1 peak area ratio, DMSO (heavy) / compound-treated (light); conditions: for isoTOP-ABPP ratio (R) at liganded lysine Q9BSH5_K15: sol, 231
T1 construct: isoTOP-ABPP experiments performed in cell lysates (in vitro); endogenous in cells; host or cells: soluble proteome of human cancer cell lines (MDA-MB-231; Ramos and Jurkat also prepared)
T1 sequence (Q9BSH5 1-251): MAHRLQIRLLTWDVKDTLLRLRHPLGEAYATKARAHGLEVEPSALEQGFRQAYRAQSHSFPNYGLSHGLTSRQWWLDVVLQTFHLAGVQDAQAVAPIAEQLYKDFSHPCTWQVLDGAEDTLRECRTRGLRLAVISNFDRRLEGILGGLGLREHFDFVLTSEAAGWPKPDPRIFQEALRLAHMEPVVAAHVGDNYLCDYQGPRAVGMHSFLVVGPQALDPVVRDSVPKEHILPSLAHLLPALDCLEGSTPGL
Protocol: (§1) In vitro covalent fragment treatment for isoTOP-ABPP. All compounds were made up as solutions in DMSO (100×) and were used at a final concentration of 50 μM for activated esters and 100 μM for guanidinylating agents. For each profiling sample, 0.5 ml of lysate was treated with 5 μl of the 100× compound stock solution or 5 μl of DMSO. Samples were treated with activated esters for
(§2) STP-alkyne labeling and click chemistry. For concentration-dependent reactivity measurements by isoTOP-ABPP, 0.5 ml proteome aliquots were treated at ambient temperature with 1 mM STP-alkyne 1 (5 μl of 100 mM stock in DMSO) and 0.1 mM STP alkyne 1 (5 μl of 10 mM stock in DMSO), respectively. For competitive isoTOP-ABPP, after in vitro fragment treatment (detailed above), the samples were labeled for 1 h at ambient temperature with 0.1 mM STP-alkyne 1 (5 μl of 10 mM stock in DMSO). Samples were conjugated by copper-mediated azide-alkyne cycloaddition (CuAAC) to either the light (1 mM STP-alkyne or fragment treated) or heavy (0.1 mM STP-alkyne or DMSO treated) TEV tags (10 μl of 5 mM stocks in DMSO, final concentration=100 μM) using tris(2-carboxyethyl)phosphine hydrochloride
(§3) R value calculation and processing. The ratios of light and heavy MS1 peaks for each unique peptide were quantified with a CIMAGE software using default parameters (3 MS1 acquisitions per peak and signal to noise threshold set to 2.5). For reactivity measurements by isoTOP-ABPP, the R value was calculated from the ratio of MS1 peak areas, comparing the 1 mM STP alkyne sample (light TEV tag) with the 0.1 mM STP alkyne sample (heavy TEV tag). For competitive isoTOP-ABPP, the R value was calculated from the ratio of MS1 peak areas, comparing the DMSO treated sample (heavy TEV tag) with the compound treated sample (light TEV tag). […] Ratios for unique peptide entries are calculated for each experiment; overlapping peptides with the same modified lysine (for example, different charge states, MudPIT chromatographic steps or tryptic termini) are grouped together and the median ratio is reported as the final ratio (R). The peptide ratios reported by CIMAGE were further filtered to ensure the removal or correction of low-quality ratios in each individual data set. The quality filters applied were the following: removal of half tryptic peptides; for ratios with high standard deviations from the median (90% of the median or above) the lowest ratio was taken instead of the median; removal of peptides with R=20 and only a single MS2 event triggered during the elution of the parent ion; manual annotation of all the peptides with ratios of 20, removing any peptides with low quality elution profiles that remained after the previous curation steps (only done for competitive isoTOP-ABPP).
(§4) Cross-data processing for fragment screening. For compound treated samples, biological replicates of the same condition were averaged, if the standard deviation was below 60% of the mean; otherwise, for lysines with at least one R value <4 for a particular compound, the lowest value of the ratio set was taken. For lysines, where all R values for a particular compound were ≥4, the average was reported. For peptides containing several possible modified lysines, the lysine with the highest number of quantification events was used for analysis and the remaining, redundant peptides were reported as alternative modification sites. Peptides included in the aggregate dataset (those used for further bioinformatics and statistical analyses) were required to have been quantified in 2 experiments for competitive isoTOP-ABPP. Lysines were categorized as liganded, if they had at least one ratio R≥4 (hit fragments). For liganded lysines with R=20 for all liganding events, lysines were required to have been quantified with R=20 in two separate experiments and were further required to have been quantified with R<20 in one additional experiment.

[2] = molecular target: T2, ECH1 Delta(3,5)-Delta(2,4)-dienoyl-CoA isomerase, mitochondrial (Homo sapiens, UniProt Q13011); parameters: key to isoTOP-ABPP reactivity ratio at lysine Q13011_K112: R = MS1 peak area ratio, DMSO (heavy) / compound-treated (light); capped at 20; conditions: for isoTOP-ABPP ratio (R) at liganded lysine Q13011_K112: sol, 231
T2 construct: isoTOP-ABPP experiments performed in cell lysates (in vitro); endogenous in cells; host or cells: soluble proteome of human cancer cell lines (MDA-MB-231, Ramos, Jurkat)
T2 sequence (Q13011 34-328): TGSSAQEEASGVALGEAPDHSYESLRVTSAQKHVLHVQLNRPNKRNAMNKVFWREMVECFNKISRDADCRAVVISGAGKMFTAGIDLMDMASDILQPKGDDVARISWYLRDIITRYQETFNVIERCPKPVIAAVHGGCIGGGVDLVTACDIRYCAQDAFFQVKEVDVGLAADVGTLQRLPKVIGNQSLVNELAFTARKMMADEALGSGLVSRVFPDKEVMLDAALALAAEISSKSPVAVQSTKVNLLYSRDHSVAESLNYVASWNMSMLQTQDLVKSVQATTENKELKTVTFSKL
Protocol: as §1, §2, §3, §4

[3] = molecular target: T3, TPMT Thiopurine S-methyltransferase (Homo sapiens, UniProt P51580); parameters: key to isoTOP-ABPP reactivity ratio at lysine P51580_K32: R = MS1 peak area ratio, DMSO (heavy) / compound-treated (light); conditions: for isoTOP-ABPP ratio (R) at liganded lysine P51580_K32: sol, 231
T3 construct: isoTOP-ABPP experiments performed in cell lysates (in vitro); endogenous in cells; host or cells: soluble proteome of human cancer cell lines (MDA-MB-231; Ramos and Jurkat also prepared)
T3 sequence (P51580 1-245): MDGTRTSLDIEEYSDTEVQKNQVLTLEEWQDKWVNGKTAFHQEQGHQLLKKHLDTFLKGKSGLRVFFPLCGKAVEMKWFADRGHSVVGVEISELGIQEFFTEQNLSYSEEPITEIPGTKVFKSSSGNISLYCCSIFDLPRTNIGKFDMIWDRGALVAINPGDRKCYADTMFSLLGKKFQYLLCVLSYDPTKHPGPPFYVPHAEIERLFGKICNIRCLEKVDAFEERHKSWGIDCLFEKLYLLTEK
Protocol: as §1, §2, §3, §4

Structure (SMILES) | isoTOP-ABPP ratio (R) at liganded lysine Q9BSH5_K15 ([1]; 50 uM, in vitro) | isoTOP-ABPP ratio (R) at liganded lysine Q13011_K112 ([2]; 50 uM, in vitro) | isoTOP-ABPP ratio (R) at liganded lysine P51580_K32 ([3]; 50 uM, in vitro) | isoTOP-ABPP ratio, lysine Q9BSH5_K15 ([1]; 50 uM_231_sol_in vitro) | isoTOP-ABPP ratio, lysine Q13011_K112 ([2]; 50 uM_231_sol_in vitro) | isoTOP-ABPP ratio, lysine P51580_K32 ([3]; 50 uM_231_sol_in vitro) | further results
COc1cc(CCC(=O)Oc2ccc([N+](=O)[O-])cc2[N+](=O)[O-])cc(OC)c1OC [fragment 33, 2,4-Dinitrophenyl 3-(3,4,5-trimethoxyphenyl)propanoate] | – | – | – | – | – | – | isoTOP-ABPP reactivity ratio at lysine Q9BSH5_K15 ([1]; 50 uM, 231 sol, in vitro): 1.5; isoTOP-ABPP reactivity ratio at lysine Q13011_K112 ([2]; 50 uM, 231 sol, in vitro): 0.9; isoTOP-ABPP reactivity ratio at lysine P51580_K32 ([3]; 50 uM, 231 sol, in vitro): 3.7
O=C(Oc1ccc([N+](=O)[O-])cc1[N+](=O)[O-])C1CCN(C(=O)OCc2ccccc2)CC1 [fragment 34, 1-Benzyl 4-(2,4-dinitrophenyl) piperidine-1,4-dicarboxylate] | 4.1 | 1.1 | 1.6 | – | – | – | –
O=C(CCc1coc2cc(F)ccc2c1=O)Oc1ccc([N+](=O)[O-])cc1[N+](=O)[O-] [fragment 36, 2,4-Dinitrophenyl 3-(7-fluoro-4-oxo-4H-chromen-3-yl)propanoate] | 10.4 | 1.3 | 3.4 | – | – | – | –
O=C(Oc1ccc([N+](=O)[O-])cc1[N+](=O)[O-])c1ccc(-c2ccccc2)cc1 [fragment 37, 2,4-Dinitrophenyl [1,1′-biphenyl]-4-carboxylate] | 4.3 | 0.9 | 1.5 | – | – | – | –
O=C(CC12CC3CC(CC(C3)C1)C2)Oc1ccc([N+](=O)[O-])cc1[N+](=O)[O-] [fragment 38, 2,4-Dinitrophenyl 2-(adamantan-1-yl)acetate] | 1.2 | 0.9 | 1.1 | – | – | – | –
O=C(Oc1ccc([N+](=O)[O-])cc1[N+](=O)[O-])c1ccc(Oc2ccccc2)cc1 [fragment 39, 2,4-Dinitrophenyl 4-phenoxybenzoate] | 1.3 | 1.1 | 1.0 | – | – | – | –
O=C(Oc1ccc([N+](=O)[O-])cc1[N+](=O)[O-])c1ccccc1Nc1cccc(C(F)(F)F)c1 [fragment 40, 2,4-Dinitrophenyl 2-((3-(trifluoromethyl)phenyl)amino)benzoate] | 0.9 | 1.0 | 1.1 | – | – | – | –
CC(C)(C)OC(=O)NCCCC(=O)Oc1ccc([N+](=O)[O-])cc1[N+](=O)[O-] [fragment 41, 2,4-Dinitrophenyl 4-((tert-butoxycarbonyl)amino)butanoate] | 2.8 | 1.0 | 1.5 | – | – | – | –
O=C(Oc1ccc([N+](=O)[O-])cc1[N+](=O)[O-])C(c1ccccc1)(c1ccccc1)c1ccccc1 [fragment 42, 2,4-Dinitrophenyl 2,2,2-triphenylacetate] | 0.9 | 1.0 | 0.9 | – | – | – | –
CC(=O)Oc1ccc([N+](=O)[O-])cc1[N+](=O)[O-] [fragment 43, 2,4-Dinitrophenyl acetate] | 3.1 | 1.2 | 1.5 | – | – | – | –
N#Cc1ccc(C(=O)Oc2ccc([N+](=O)[O-])cc2[N+](=O)[O-])cc1 [fragment 44, 2,4-Dinitrophenyl 4-cyanobenzoate] | – | – | – | 20.0 | 0.9 | 1.4 | –
O=C(CCc1ccc2c(c1)OCO2)Oc1ccc([N+](=O)[O-])cc1[N+](=O)[O-] [fragment 45, 2,4-Dinitrophenyl 3-(benzo[d][1,3]dioxol-5-yl)propanoate] | – | – | – | 3.4 | 1.0 | 2.3 | –
O=C(ON1C(=O)CCC1=O)c1cc(C(F)(F)F)cc(C(F)(F)F)c1 [fragment 46, 3,5-Bis(trifluoromethyl)benzoic acid NHS ester] | – | – | – | 1.4 | 0.8 | 20.0 | –
O=C(Oc1c(F)c(F)c(C(F)(F)F)c(F)c1F)c1cc(C(F)(F)F)cc(C(F)(F)F)c1 [fragment 47, 2,3,5,6-Tetrafluoro-4-(trifluoromethyl)phenyl 3,5-bis(trifluoromethyl)benzoate] | – | – | – | 0.9 | 1.0 | 9.5 | –
O=C(Oc1c(F)c(F)cc(F)c1F)c1cc(C(F)(F)F)cc(C(F)(F)F)c1 [fragment 48, 2,3,5,6-Tetrafluorophenyl 3,5-bis(trifluoromethyl)benzoate] | – | – | – | 1.0 | 1.5 | 4.4 | –
CC(C)(C)OC(=O)N=C(NC(=O)OC(C)(C)C)n1cccn1 [fragment 50, reference compound] | – | – | – | – | – | – | isoTOP-ABPP ratio, lysine Q9BSH5_K15 ([1]; 100 uM_231_sol_in vitro): 2.8; isoTOP-ABPP ratio, lysine Q13011_K112 ([2]; 100 uM_231_sol_in vitro): 1.3; isoTOP-ABPP ratio, lysine P51580_K32 ([3]; 100 uM_231_sol_in vitro): 11.7
